Assay results reported in article PMC7592913, “PE homeostasis rebalanced through mitochondria-ER lipid exchange prevents retinal degeneration in Drosophila” (PLoS Genetics, 2020).

Target: T1, PECT (Drosophila melanogaster, UniProt Q9VK25)
T1 construct: pect cDNA in pMAL, N-terminal MBP fusion (tag kept), E. coli BL21 (DE3), amylose column
Assay: LC-MS (SRM) detection of CDP-ethanolamine product
Assay type: biochemical
Settings: 1 mM phosphoethanolamine, 2 mM CTP, 10 mM MgCl2, 1 mM DTT, 1 uM MBP-PECT, pH 7.7, 37 °C, 15 min

T1 sequence (Q9VK25 1-393): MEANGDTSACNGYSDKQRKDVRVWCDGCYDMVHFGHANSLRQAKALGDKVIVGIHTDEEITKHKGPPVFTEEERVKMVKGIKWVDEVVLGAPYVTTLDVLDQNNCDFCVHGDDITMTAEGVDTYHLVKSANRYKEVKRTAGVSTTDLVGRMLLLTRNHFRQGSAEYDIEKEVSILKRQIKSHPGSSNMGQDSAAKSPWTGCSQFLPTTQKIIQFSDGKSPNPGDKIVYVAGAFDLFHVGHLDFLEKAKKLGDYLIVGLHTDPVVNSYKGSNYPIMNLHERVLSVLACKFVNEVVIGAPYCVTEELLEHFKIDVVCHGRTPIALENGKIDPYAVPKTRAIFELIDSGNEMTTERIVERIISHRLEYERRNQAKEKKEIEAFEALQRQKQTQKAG

| Compound | LC-MS (SRM) detection of CDP-ethanolamine product |
| --- | --- |
| Nc1ccn([C@@H]2O[C@H](COP(=O)(O)OP(=O)(O)OP(=O)(O)O)[C@@H](O)[C@H]2O)c(=O)n1 [CTP] | CDP-ethanolamine was detected by the mass spectrum after incubating phosphoethanolamine and CTP with PECT |
| NCCOP(=O)(O)O [phosphoethanolamine] | CDP-ethanolamine was detected by the mass spectrum after incubating phosphoethanolamine and CTP with PECT |
